Measured values reported in patent US8198293B2, “Oxymatrine compositions and related methods for treating and preventing chronic infectious diseases” (priority 2008, dated 2012).

Experiments:
enterovirus protein = assay: Immunoperoxidase staining of stomach biopsy for enterovirus protein (5D8/1); assay type: in vivo, human; details: one patient (case 5), before vs after taking oxymatrine for 6 months; correlated with symptomatic improvement
Description: FIG. 2 illustrates the infected human stomach (biopsy of case 5 stained with 5D8/1) before treatment with oxymatrine.
FIG. 3 illustrates the stomach biopsy of case 5 stained with 5 D8/1 after taking oxymatrine for 6 months.
FIG. 2 illustrates immunoperoxidase staining for enterovirus protein in a stomach biopsy before oxymatrine therapy for one patient. […] The decrease in viral protein correlated with significant symptomatic improvement.

[1] = tested on: Mycobacterium avium complex (MAC); assay: Case report: Mycobacterium avium complex infection of the lung; assay type: in vivo, human
Protocol: A person with known history of Mycobacterium avium complex (MAC) infection of the lung and bronchiectasis for several years was treated with clarithromycin, ethambutol, ciprofloxacin and rifabutin for about five years. […] Intravenous amikacin was added following right middle and left lingula lobectomy. In spite of the above therapy, sputum and repeat bronchial washing obtained by bronchoscopy grew MAC within three weeks. A computed tomography scan of the chest remained unchanged except for the post-surgical changes.
Because of persistent positive cultures despite the four drug therapies, the patient was started on oxymatrine, which they tolerated well. […] Sputum became clear in color then resolved. About two months after the start of oxymatrine, the patient had fevers, flu-like symptoms, increase in non-productive cough, bilateral uveitis and elevation of liver enzymes to 3.5 times normal values. The symptoms lasted two weeks and resolved after tapering dose of oxymatrine to 200 mg bid. Liver enzymes returned to normal within six weeks. […] The anti-MAC medications were discontinued after […] of oxymatrine therapy. The dose of oxymatrine was tapered to 100 mg tid at four and a half months of therapy and then stopped after six months of total therapy. The patient felt well at the six month follow-up.

enterovirus = assay: Case reports: diarrhea with viral/enterovirus protein in colon biopsy (Examples 11, 12); assay type: in vivo, human
Description: A person developed continuing watery diarrhea, as many as twenty episodes a day, and mild fatigue for three months. Laboratory studies and stool work-up were completely negative. […] They failed Asacol therapy.
A person developed severe watery diarrhea for two months. Stool evaluation was unremarkable. […] They continued to do well for six months on the medication. A decrease of medication to half the dose cause a relapse of the symptoms, which resolved after increasing the dosage.

hepatitis B virus = details: HBV transgenic mice, cited from earlier work
[2] = tested on: enterovirus infection (ME/CFS patients); assay: Oxymatrine open-label, controlled clinical study in ME/CFS patients with enterovirus infection; assay type: in vivo, human
Protocol: An open-label, controlled study was conducted on patients who fulfilled the international criteria for myalgic encephalomyelitis (ME)/chronic fatigue syndrome (CFS) and had virological evidence of enterovirus infection.
One hundred patients took oxymatrine at dose of 200-300 mg twice a day with or without food for a minimum of three months. Patients who could not complete the course due to side effects or intolerance were considered as failures (intent-to-treat analysis). Of the first group, 52% ( 52/100) responded to oxymatrine, as compared to 6% ( 7/114) of the control groups (p<0.000001, x^2 test). Of the next 104 patients, 52% responded to treatment. […] Fifty-three percent ( 57/107) of patients with elevated coxsackie virus B (CVB) and echovirus (Ech) antibody responded to therapy and 50% ( 49/97) of patients with non-typeable EV infections improved (NS, x^2 test). Fifty-two percent ( 47/91) of patients with positive EV protein in stomach biopsies responded, whereas 56% ( 5/9) of patients with negative biopsies responded (NS, x^2 test).
Relapse of symptoms was common after discontinuing oxymatrine. Fifty-nine percent ( 19/32) of patients (4 male, 15 female) relapsed within two days to one month after discontinuation of oxymatrine. Eighty-seven percent ( 13/15) of patients who relapsed responded to restart of oxymatrine. Subsequent responders were continued on oxymatrine beyond six months.
A small percentage ( 2/204) of patients had transient increase in potassium, which returned to normal without specific treatment. A small percentage of patients ( 2/204) had elevated blood pressure that prompted discontinuation of therapy. […] Transient, moderate increase in pre-existing symptoms were reported by more than 50% of the patients but most patients continued to take the herbs at the same or reduced dose. Twenty patients (10%) stopped oxymatrine within the first eight weeks due to intolerable side effects. […]

[3] = tested on: Varicella-Zoster Virus (VZV); assay: Case report: chronic recurrent Varicella-Zoster Virus infection (shingles); assay type: in vivo, human; details: Example 9 patient, 200 mg bid
Protocol: A person developed recurrent shingles after multiple episodes of sinus infections and sinus surgeries. They also had chronic indigestion and nausea. Fatigue became so severe that they were bedridden for several years.
Coxsackievirus B4 antibody was 1:320. […] The patient was started on oxymatrine 200 mg bid.

[4] = compared to placebo-treated animals
[5] = side effects in 176 patients having taken oxymatrine

O=C1CCC[C@@H]2[C@H]3CCC[N@+]4([O-])CCC[C@@H](CN12)[C@@H]34 [oxymatrine]
enterovirus protein in stomach biopsy by staining with monoclonal antibody 5D8/1 (enterovirus protein): significant reduction in viral protein | elevation of liver enzymes ([1]; about two months after start, returned to normal within six weeks after dose tapering to 200 mg bid): 3.5 times normal values | repeat computed tomography scans of the chest ([1]; in vivo): healing and calcifications of the lesions | repeat bronchial washing culture ([1]; six months after onset of oxymatrine therapy, with anti-MAC medications): no growth of MAC | night sweats ([1]; within two months): decreased from twice a week to once every two weeks | diarrhea outcome (enterovirus; Example 11 patient, oxymatrine 200 mg bid): resolved completely in a few days | diarrhea outcome (enterovirus; Example 12 patient): resolved within one week | level of gamma interferon (hepatitis B virus; [4]): increased more than three-fold | level of interleukin-2 (hepatitis B virus; [4]): increased more than three-fold | level of interleukin-4 (hepatitis B virus; [4]): decreased more than three-fold | level of interleukin-10 (hepatitis B virus; [4]): decreased more than three-fold | effect on hepatitis B viremia, mRNA and protein levels (hepatitis B virus): No effect | relapsed patients who responded to restart of oxymatrine ([2]; 13/15): Eighty-seven | patients relapsed after discontinuation of oxymatrine ([2]; 19/32, within two days to one month after discontinuation): Fifty-nine | duration of the increase in symptoms ([2]; better tolerated when dose increased gradually over 2-3 weeks or longer): a few days to several weeks | patients reporting transient, moderate increase in pre-existing symptoms ([2]; both, human, in vivo): more than 50% | changes of other chemistry parameters and complete blood counts (CBC) ([2]; compared to baseline values): no significant changes | tolerability in most of the patients ([2]; except variable increase of pre-existing symptoms during the first 1-2 days of maximal doses): tolerated oxymatrine well | patients responded to oxymatrine ([2]; first group (52/100), 200-300 mg twice a day, minimum three months, intent-to-treat, control 6% (7/114)): 52% | serious complications during therapy ([2]; human, in vivo): No serious complications | patients responded to treatment ([2]; next 104 patients): 52% | patients with elevated blood pressure that prompted discontinuation of therapy ([2]; of 204 patients): 2/204 | patients with transient increase in potassium ([2]; of 204 patients, returned to normal without specific treatment): 2/204 | patients responded to therapy ([2]; patients with elevated coxsackie virus B and echovirus antibody (57/107)): Fifty-three | patients improved ([2]; patients with non-typeable EV infections (49/97)): 50% | patients responded ([2]; patients with positive EV protein in stomach biopsies (47/91)): Fifty-two | Diffuse rashes, % of total patients [2, 5]: <1% | Dry eyes and mouth, % of total patients [2, 5]: 1% | Fevers, % of total patients [2, 5]: 2% | Herpes simplex virus outbreak after discontinuation, % of total patients [2, 5]: 1% | Increase in blood pressure, % of total patients [2, 5]: 1% | Increase in edema, % of total patients [2, 5]: 1% | Increased abdominal pain, % of total patients [2, 5]: 6% | Increased bladder symptoms, % of total patients [2, 5]: 2% | Increased diarrhea, % of total patients [2, 5]: 4% | Increased dizziness, % of total patients [2, 5]: 2% | Increased fatigue, % of total patients [2, 5]: 4% | Increased headache, % of total patients [2, 5]: 8% | Increased insomnia, % of total patients [2, 5]: 1% | Increased myalgia, % of total patients [2, 5]: 30% | Increased nausea, % of total patients [2, 5]: 6% | Increased palpitation, chest pain, % of total patients [2, 5]: 3% | Increased polyarthralgia, % of total patients [2, 5]: 1% | Increased sinus congestion, % of total patients [2, 5]: 3% | Inflammation of skin lesion, % of total patients [2, 5]: 1% | New rashes, % of total patients [2, 5]: <1% | Seizure (petit mal), % of total patients [2, 5]: <1% | Weight gain, % of total patients [2, 5]: 1% | outcome in one patient with severe increase in febrile response and marked worsening of symptoms ([2]; toward the end of three months of medication): lasting remission | patients who stopped oxymatrine due to intolerable side effects ([2]; within the first eight weeks, twenty patients): 10% | outbreaks of shingles [3]: less often and not as severe | clinical outcome ([3]; three months): went back to full-time work
